Where two headings read alike, the source gives them in different places.
Legend:
TrkA kinase = biological target: T1, TrkA kinase (Homo sapiens, UniProt P04629); test: In vitro TrkA inhibitory activity using TR-FRET assay; assay type: biochemical; details: 5 ng TrkA, 500 μM ATP
T1 construct: purchased Upstate, USA
Procedure, shortened: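 Kinase (5 ng) was preincubated with compound for 30 min at 20-35° C before adding 40 nM ULight poly GT and 500 μM ATP; stopped with EDTA after 30 min. Eu-anti-phosphotyrosine antibody (0.5 nM) was read at 615/665 nm with 1% DMSO final. Compounds showing >25% inhibition at 1 μM went to sigmoidal dose-response IC50 fitting.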

[1] = Metabolic stability using Human Liver Microsomes (HLM); assay type: in vitro ADME; details: pooled human liver microsomes, compound 1 μM, 0.3 mg/ml microsomal protein, 1 mM NADPH
Method: Stability Protocol: Metabolic Stability Using Rat Liver Microsomes (RLM) and Human Liver Microsomes (HLM).
This assay was performed using pooled male rat liver microsomes (In-house prepared as per SOP), Pooled Human liver microsomes (XENOTECH; Batch No— H0630-1110189)). The 100 μl reaction contains the compounds at 1 μM, 0.3 mg/ml microsomal protein and both the co-factors (1 mM NADPH) in buffer and the mixture was incubated at different time points (0, 15, 30, 45, 60, & 90 minutes). The reaction was stopped by the addition of equal volume of acetonitrile containing internal standard (Telmesartin). The precipitated protein was removed by centrifugation and the supernatant were analyzed LC/MS-MS method. The percent parent compound remaining was quantified by analysis using following formula (% parent compound remaining=(peak area at Time x/peak area at T0)×100. The intrinsic clearance was calculated using the following formula. CLint,app: (0.693/in vitro t½)(incubation volume/mg of microsomal protein)(45 mg microsomal protein/gram of liver)(20^a g of liver/kg body weight) • a: 20 and 45 g of liver/kg of body weight were used for human and rat, respectively (Lu C et al., DMD, 2006). Bio-analysis: It was performed in Multiple Reaction Monitoring mode (negative mode) using Applied Biosystems API 4000 coupled to Agilent Technologies 1100 series HPLC on a reverse phase column (Zorbax Eclipse XDB C18, 50×4.6 mm, 5 μm). Celecoxib was used as internal standard both in in-vitro and in-vivo experiments. Mobile phase used 0.05% […] water and acetonitrile (10:90) with a flow rate of 0.6 ml/minute. The injection volume was kept as 10 μl.

T1 sequence (P04629 33-796): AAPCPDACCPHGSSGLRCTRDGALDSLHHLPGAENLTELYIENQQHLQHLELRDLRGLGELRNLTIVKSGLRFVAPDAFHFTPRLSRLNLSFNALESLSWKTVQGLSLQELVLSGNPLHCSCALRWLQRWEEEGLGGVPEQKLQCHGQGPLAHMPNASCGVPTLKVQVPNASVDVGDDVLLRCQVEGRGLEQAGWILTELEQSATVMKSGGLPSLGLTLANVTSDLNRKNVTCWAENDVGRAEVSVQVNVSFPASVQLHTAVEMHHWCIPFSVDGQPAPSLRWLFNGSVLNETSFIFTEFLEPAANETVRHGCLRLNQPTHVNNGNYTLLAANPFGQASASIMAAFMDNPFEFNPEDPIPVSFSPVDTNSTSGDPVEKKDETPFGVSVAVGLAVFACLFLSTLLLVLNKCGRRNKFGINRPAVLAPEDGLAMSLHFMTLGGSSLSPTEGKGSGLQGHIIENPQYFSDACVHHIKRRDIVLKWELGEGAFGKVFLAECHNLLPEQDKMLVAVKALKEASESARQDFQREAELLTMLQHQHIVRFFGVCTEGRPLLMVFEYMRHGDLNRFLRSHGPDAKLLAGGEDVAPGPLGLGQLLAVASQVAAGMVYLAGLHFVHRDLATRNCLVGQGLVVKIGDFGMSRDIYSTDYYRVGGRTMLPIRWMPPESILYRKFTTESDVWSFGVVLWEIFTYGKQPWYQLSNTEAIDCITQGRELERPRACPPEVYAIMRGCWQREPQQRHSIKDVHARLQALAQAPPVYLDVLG

IC50 (TrkA kinase; read-out: TrkA inhibition in-vitro IC50) [nM]	half-life at 1 μM [1] [h]	IC50 (TrkA kinase; both bounds given in nm, read-out: TrkA inhibitory activity in-vitro IC50) [nM]	Compound
≤ 50	> 1.33		O=C(NS(=O)(=O)c1ccc(N2CC[C@H](O)C2)nc1)c1cnn2ccc(N3CCC[C@@H]3c3cc(F)ccc3F)cc12 [Example 25, 5-((R)-2-(2,5-difluorophenyl)pyrrolidin-1-yl)-N-((6-((S)-3-hydroxypyrrolidin-1-yl)pyridin-3-yl)sulfonyl)pyrazolo[1,5-a] pyridine-3-carboxamide]
	> 1.33	100 to 500	CC1OCCC1S(=O)(=O)NC(=O)c1cnn2ccc(N3CCC[C@@H]3c3cc(F)ccc3F)cc12 (stereo partly drawn) [Example 24, 5-((R)-2-(2,5-difluorophenyl)pyrrolidin-1-yl)-N-((2-methyltetrahydrofuran-3-yl)sulfonyl)pyrazolo[1,5-a] pyridine-3-carboxamide]

— patent US10047087B2, “Substituted pyrazolo[1,5-A] pyridine as tropomyosin receptor kinase (TrK) inhibitors” (Dr. Reddy's Laboratories Ltd., priority 2011, dated 2018)
